According to PubChem BioAssay AID1919000 (Molecular Pharmacology Branch, DTP, NCI, 2023):

Test system: 653999-131-R-J2-PDC complex spheroids, growth % test/control
Experiment: Anticancer human tumor 653999-131-R-J2-PDC patient-derived lung adenocarcinoma cell line growth inhibition [AhR]
Settings: for IC50: curve of first compound; for viability, T/C: stronger effect = lower value
Outline: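 Complex tumor spheroids co-cultured with HUVEC and human MSC stroma; AhR antagonists tested in combination with standard-of-care and investigational agents. Top concentration at or near clinical Cmax (else 10 microM), half-log dilutions; growth expressed as percent test/control.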

[1] = second compound 0.1 µM, first compound 0.0316 µM
[2] = second compound 0.1 µM, first compound 0.1 µM
[3] = second compound 0.1 µM, first compound 0.316 µM
[4] = second compound 0.1 µM, first compound 1 µM
[5] = second compound 0.1 µM, first compound 3.16 µM
[6] = second compound 0.1 µM, first compound 10 µM
[7] = second compound 0.316 µM, first compound 0.0316 µM
[8] = second compound 0.316 µM, first compound 0.1 µM
[9] = second compound 0.316 µM, first compound 0.316 µM
[10] = second compound 0.316 µM, first compound 1 µM
[11] = second compound 0.316 µM, first compound 3.16 µM
[12] = second compound 0.316 µM, first compound 10 µM
[13] = second compound 1 µM, first compound 0.0316 µM
[14] = second compound 1 µM, first compound 0.1 µM
[15] = second compound 1 µM, first compound 0.316 µM
[16] = second compound 1 µM, first compound 1 µM
[17] = second compound 1 µM, first compound 3.16 µM
[18] = second compound 1 µM, first compound 10 µM
[19] = second compound 3.16 µM, first compound 0.0316 µM
[20] = second compound 3.16 µM, first compound 0.1 µM
[21] = second compound 3.16 µM, first compound 0.316 µM
[22] = second compound 3.16 µM, first compound 1 µM
[23] = second compound 3.16 µM, first compound 3.16 µM
[24] = second compound 3.16 µM, first compound 10 µM
[25] = second compound 10 µM, first compound 0.0316 µM
[26] = second compound 10 µM, first compound 0.1 µM
[27] = second compound 10 µM, first compound 0.316 µM
[28] = second compound 10 µM, first compound 1 µM
[29] = second compound 10 µM, first compound 3.16 µM
[30] = second compound 10 µM, first compound 10 µM
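Also: spheroids exposed to agents for seven days.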
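For viability, T/C in this document: 100% = DMSO vehicle control viability.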

Work on `O=C(C=Cc1cccc(S(=O)(=O)Nc2ccccc2)c1)NO` + Cc1cncc(-c2nc(NCCc3c[nH]c4ccccc34)c3ncn(C(C)C)c3n2)c1 yielded an IC50 (second compound 0.1 µM) of 2.99 µM, an IC50 (second compound 0.316 µM) of 3.32 µM and an IC50 (second compound 1 µM) of 3.3 µM. The IC50 (second compound 3.16 µM) was 3.48 µM, the IC50 (second compound 10 µM) was 1.46 µM and the viability, T/C [1] was 91.4%. The viability, T/C [2] was 96.3%, the viability, T/C [3] was 88% and the viability, T/C [4] was 74.5%. It also gave a viability, T/C [5] of 49.2%, a viability, T/C [6] of 10.7% and a viability, T/C [7] of 94.1%. It also gave a viability, T/C [8] of 96.7%, a viability, T/C [9] of 89% and a viability, T/C [10] of 76.5%. For the same compound, the viability, T/C [11] was 52.2%, the viability, T/C [12] was 10.6% and the viability, T/C [13] was 95.8%. For the same compound, the viability, T/C [14] was 104%, the viability, T/C [15] was 98.3% and the viability, T/C [16] was 91.2%. For the same compound, the viability, T/C [17] was 51.6%, the viability, T/C [18] was 9.38% and the viability, T/C [19] was 104%. It also gave a viability, T/C [20] of 99.5%, a viability, T/C [21] of 95.1% and a viability, T/C [22] of 79.3%. For the same compound, the viability, T/C [23] was 53.7%, the viability, T/C [24] was 11.8% and the viability, T/C [25] was 54.7%. It also gave a viability, T/C [26] of 50.4%, a viability, T/C [27] of 50.4% and a viability, T/C [28] of 51.7%. It also gave a viability, T/C [29] of 46.9% and a viability, T/C [30] of 8.52%.

In the case of `CC(C)c1c(-c2ccccc2)nc2c(C#N)c[nH]n2c1=O` + CC(CO)NC(=O)c1cc(-c2ccc(Cl)cc2)nn(-c2cnn(C)c2)c1=O, the IC50 (second compound 0.1 µM) is reported as greater than 10 µM, the IC50 (second compound 0.316 µM) is reported as greater than 10 µM and the IC50 (second compound 1 µM) is reported as greater than 10 µM. For the same compound, the IC50 (second compound 3.16 µM) was greater than 10 µM, the IC50 (second compound 10 µM) was greater than 10 µM and the viability, T/C [1] was 104%. The viability, T/C [2] was 105%, the viability, T/C [3] was 99.4% and the viability, T/C [4] was 94.2%. The viability, T/C [5] was 93.3%, the viability, T/C [6] was 90.9% and the viability, T/C [7] was 102%. For the same compound, the viability, T/C [8] was 105%, the viability, T/C [9] was 93.3% and the viability, T/C [10] was 101%. The viability, T/C [11] was 93.8%, the viability, T/C [12] was 99% and the viability, T/C [13] was 104%. For the same compound, the viability, T/C [14] was 106%, the viability, T/C [15] was 114% and the viability, T/C [16] was 98%. The viability, T/C [17] was 97.9%, the viability, T/C [18] was 95.4% and the viability, T/C [19] was 105%. The viability, T/C [20] was 108%, the viability, T/C [21] was 123% and the viability, T/C [22] was 93.6%. For the same compound, the viability, T/C [23] was 92.2%, the viability, T/C [24] was 91.9% and the viability, T/C [25] was 104%. It also gave a viability, T/C [26] of 116%, a viability, T/C [27] of 100% and a viability, T/C [28] of 102%. It also gave a viability, T/C [29] of 95.4% and a viability, T/C [30] of 96.7%.

Work on `Nc1ncn(C2CC(O)C(CO)S2)c(=O)n1` (stereo not given) + Cc1ccccc1N=Nc1ccc(NC(=O)c2ccnn2C)c(C)c1 yielded an IC50 (second compound 0.1 µM) greater than 0.3 µM, an IC50 (second compound 0.316 µM) greater than 0.3 µM and an IC50 (second compound 1 µM) greater than 0.3 µM. For the same compound, the IC50 (second compound 3.16 µM) was greater than 0.3 µM, the IC50 (second compound 10 µM) was greater than 0.3 µM and the viability, T/C (second compound 0.1 µM, first compound 0.000949 µM) was 96.4%. It also gave a viability, T/C (second compound 0.1 µM, first compound 0.003 µM) of 98.8%, a viability, T/C (second compound 0.1 µM, first compound 0.00949 µM) of 98.2% and a viability, T/C (second compound 0.1 µM, first compound 0.03 µM) of 101%. The viability, T/C (second compound 0.1 µM, first compound 0.0949 µM) was 95.3%, the viability, T/C (second compound 0.1 µM, first compound 0.3 µM) was 85.8% and the viability, T/C (second compound 0.316 µM, first compound 0.000949 µM) was 98.6%. For the same compound, the viability, T/C (second compound 0.316 µM, first compound 0.003 µM) was 105%, the viability, T/C (second compound 0.316 µM, first compound 0.00949 µM) was 105% and the viability, T/C (second compound 0.316 µM, first compound 0.03 µM) was 105%. The viability, T/C (second compound 0.316 µM, first compound 0.0949 µM) was 92.8%, the viability, T/C (second compound 0.316 µM, first compound 0.3 µM) was 95.4% and the viability, T/C (second compound 1 µM, first compound 0.000949 µM) was 107%. It also gave a viability, T/C (second compound 1 µM, first compound 0.003 µM) of 102%, a viability, T/C (second compound 1 µM, first compound 0.00949 µM) of 109% and a viability, T/C (second compound 1 µM, first compound 0.03 µM) of 109%. For the same compound, the viability, T/C (second compound 1 µM, first compound 0.0949 µM) was 88.2%, the viability, T/C (second compound 1 µM, first compound 0.3 µM) was 88.7% and the viability, T/C (second compound 3.16 µM, first compound 0.000949 µM) was 102%. It also gave a viability, T/C (second compound 3.16 µM, first compound 0.003 µM) of 100%, a viability, T/C (second compound 3.16 µM, first compound 0.00949 µM) of 95.1% and a viability, T/C (second compound 3.16 µM, first compound 0.03 µM) of 94.4%. The viability, T/C (second compound 3.16 µM, first compound 0.0949 µM) was 95.8%, the viability, T/C (second compound 3.16 µM, first compound 0.3 µM) was 82% and the viability, T/C (second compound 10 µM, first compound 0.000949 µM) was 101%. It also gave a viability, T/C (second compound 10 µM, first compound 0.003 µM) of 103%, a viability, T/C (second compound 10 µM, first compound 0.00949 µM) of 110% and a viability, T/C (second compound 10 µM, first compound 0.03 µM) of 95.6%. For the same compound, the viability, T/C (second compound 10 µM, first compound 0.0949 µM) was 107% and the viability, T/C (second compound 10 µM, first compound 0.3 µM) was 103%.
